This note sets out measurements from US20040142978A1, “Aminocyanopyridine inhibitors of mitogen activated protein kinase-activated protein kinase-2” (Pharmacia Corporation, priority 2002, published 2004).

pIC50: −log10 of the molar value. Counter-ions that a name gives are not always drawn. Like-named read-outs stand apart in the source and are kept apart here.

The subject of one experiment is TNFα production. The experiment can be described thus: Lipopolysaccharide (LPS)-Induced TNFα Production (Rat LPS assay, serum TNFα ELISA). The format is in vivo, Lewis rats. The settings on record: 20 mpk (IG). The method, then: Adult male 225-250 gram Lewis rats (Harlan Sprague-Dawley) were used. Rats were fasted 18 hr prior to oral dosing, and allowed free access to water throughout the experiment. Each treatment group consisted of 5 animals.
Compounds were prepared as a suspension in a vehicle consisting of 0.5% methylcellulose, 0.025% Tween-20 in PBS. Compounds or vehicle were orally administered in a volume of 1 ml using an 18 gauge gavage needle. LPS (E. coli serotype 0111:B4, Lot #39H4103, Cat. # L-2630, Sigma) was administered 1-4 hr later by injection into the penile vein at a dose of 1 mg/kg in 0.5 ml sterile saline. Blood was collected in serum separator tubes via cardiac puncture 1.5 hr after LPS injection, a time point corresponding to maximal TNFα production. […]
ELISA plates (NUNC-Immuno™ Plate Maxisorb™ Surface) were coated with 0.1 ml per well of an Protein G purified fraction of a 2.5 ug/ml of hamster anti-mouse/rat TNFα monoclonal antibody TN19.12 (2.5 ug/ml in PBS, 0.1 ml/well). […] Enzymatic conversion of ABTS to colored product was measured after ˜30 minutes using a SpectroMax 340 spectrophotometer (Molecular Devices Corp.) at 405 nm. TNF levels in serum were quantitated from a recombinant rat TNFα (BioSource International, Cat. #PRC3014.) standard curve using a quadratic parameter fit generated by SoftMaxPRO software. […]
(An ELISA detects its analyte on a solid surface through an enzyme-linked reagent.)

Experiment [1] deals with TNFα release from U937 cells. In words: U937 Cell TNFα Release Assay (LPS-stimulated, TNFα ELISA). To be noted: Homo sapiens, read-out: TNFα release assay IC50. The class given is cell-based. Here is the method:
The human monocyte-like cell line, U937 (ATCC #CRL-1593.2), is cultured in RPMI1640 media with 10% heat-inactivated fetal calf serum (GIBCO), glutamine and pen/strep at 37° C. and 5% CO2. Differentiation of U937 to monocytic/macrophage-like cells is induced by the addition of phorbol12-myristate 13-acetate (Sigma) at final concentration of 20 ng/ml to a culture of U937 cells at ˜0.5 million cells/ml and incubated for 24 hrs. The cells are centrifuged, washed with PBS and resuspended in fresh media without PMA and incubated for 24 hrs. Cells adherent to the culture flask are harvested by scraping, centrifugation, and resuspended in fresh media to 2 million cells/ml, and 0.2 ml is aliquoted to each of 96 wells in flat-bottom plate. Cells are then incubated for an additional 24 hrs to allow for recovery. The media is removed from the cells, and 0.1 ml of fresh media is added per well. 0.05 ml of serially diluted compound or control vehicle (Media with DMSO) is added to the cells. […] After 1 hr incubation, 0.05 ml of 400 ng/ml LPS (E Coli serotype 0111:B4, Sigma) in media is added for final concentration of 100 ng/ml. Cells are incubated at 37° C. for 4 hrs. After 4 hrs incubation, supernatants are harvest and assayed by ELISA for the presence of TNFα.
ELISA plates (NUNC-Immuno™ Plate Maxisorb™ Surface) were coated with purified mouse monoclonal IgG1 anti-human TNFα antibody (R&D Systems #MAB610; 1.25 ug/ml in sodium bicarbonate pH 8.0, 0.1 ml/well) and incubated at 4° C. Coating solution was aspirated the following day and wells were blocked with 1 mg/ml gelatin in PBS (plus 1× thimerasol) for 2 days at 4° C. Prior to using, wells were washed 3× with wash buffer (PBS with 0.05% Tween). Cultured media samples were diluted in EIA buffer (5 mg/ml bovine γ-globulin, 1 mg/ml gelatin, 1 ml/l Tween-20, 1 mg/ml thimerasol in PBS), added to wells (0.1 ml/well) in triplicate and allowed to incubate for 1.5 hr at 37° C. in a humidified chamber. Plates were again washed and 0.1 ml/well of a mixture of rabbit anti-human TNFα polyclonal antibodies in EIA buffer (1:400 dilution of Sigma #T8300, and 1:400 dilution of Calbiochem #654250) was added for 1 hr at 37° C. Plates were washed as before and peroxidase-conjugated goat anti-rabbit IgG (H+L) antibody (Jackson lmmunoResearch #111-035-144, 1 ug/ml in EIA buffer, 0.1 ml/well) was added for 45 min. After final washing, plates were developed with peroxidase-ABTS solution (Kirkegaard/Perry #50-66-01, 0.1 ml/well). Enzymatic conversion of ABTS to colored product was measured after 5-30 minutes using a SpectroMax 340 spectrophotometer (Molecular Devices) at 405 nm. TNF levels were quantitated from a recombinant human TNFα (R&D Systems #210-TA-010) standard curve using a quadratic parameter fit generated by SoftMaxPRO software. ELISA sensitivity was approximately 30 pg TNF/ml. IC50 values for compounds were generated using BioAssay Solver.

In experiment [2] the target is Recombinant MAPKAPK2 (MK-2) (Homo sapiens, UniProt P49137). In words: Determination of MK-2 IC50 (anion exchange resin capture assay, phosphorylation of HSP-peptide). The format is biochemical. The method, then:
The phosphorylation of HSP-peptide ([…]) by MAPKAPK2 was measured using an anion exchange resin capture assay method. […] The reaction was terminated and [γ^33P]ATP was removed from solution by the addition of 150 μl of AG 1×8 ion exchange resin in 900 mM sodium formate pH 3.0. A 50 μl aliquot of head volume was removed from the quenched reaction mixture and added to a 96-well plate, 150 μl of Microscint-40 (Packard) was added and the amount of phosphorylated-peptide was determined. Allow the Microscint to sit in the plates for 60 minutes prior to counting.
Compounds are evaluated as potential inhibitors of the MK2 kinase by measuring their effects on MK2 phosphorylation of the peptide substrate. Compounds may be screened initially at two concentrations prior to determination of IC50 values. Screening results are expressed as percent inhibition at the concentrations of compound tested. For IC50 value determinations, compounds are tested at six concentrations in ten-fold serial dilutions with each concentration tested in triplicate. Results are expressed as IC50 values in micromolar. The assay is performed at a final concentration of 2% DMSO.

Where [3] appears, read: U-937, U937 cells, LPS 100 ng/ml, 4 hrs.

Recombinant MAPKAPK2 (MK-2), sequence (P49137 whole entry, species assumed): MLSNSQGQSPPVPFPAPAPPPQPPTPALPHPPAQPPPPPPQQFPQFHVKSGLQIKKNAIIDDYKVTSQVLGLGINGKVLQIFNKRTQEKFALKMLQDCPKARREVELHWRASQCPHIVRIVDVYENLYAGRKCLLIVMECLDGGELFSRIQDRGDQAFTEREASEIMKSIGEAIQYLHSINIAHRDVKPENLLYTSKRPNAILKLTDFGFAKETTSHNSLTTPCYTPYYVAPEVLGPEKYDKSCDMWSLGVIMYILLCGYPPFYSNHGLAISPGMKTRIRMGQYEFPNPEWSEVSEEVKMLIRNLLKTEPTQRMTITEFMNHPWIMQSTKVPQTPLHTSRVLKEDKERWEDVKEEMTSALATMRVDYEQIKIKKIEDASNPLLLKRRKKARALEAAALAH

Consider `N#Cc1c(-c2cnc[nH]2)cc(-c2cccc(O)c2)nc1N` [Example 4, 2-amino-6-(3-hydroxyphenyl)-4-(1H-imidazol-5-yl)nicotinonitrile trifluoroacetate], for which the “Rat LPS assay: inhibition of TNFα production” value with TNFα production amounted to 41%. Besides, in experiment [1] (U-937, 4 h), the negative-log IC50 (pIC50) (in general, the negative decadic logarithm of the IC50, by convention in mol/L) was 5.15.
On to `N#Cc1c(-c2ccc(B(O)O)cc2)cc(-c2ccco2)nc1N` [Example 88, bis(trifluoroacetate)], for which, in experiment [2], the pIC50 was 4.19.
As to `N#Cc1c(N)nc2c(c1-c1ccccc1)CCc1n[nH]cc1-2` [Example 100, 2-amino-4-phenyl-6,8-dihydro-5H-pyrazolo[3,4-h]quinoline-3-carbonitrile bis(trifluoroacetate)], the pIC50 in experiment [1] (setting [3]) was 4.75.
For `N#Cc1c(N)nc2c(c1-c1cccc(F)c1F)CCc1[nH]ncc1-2.O=C(O)C(F)(F)F.O=C(O)C(F)(F)F` [Example 102, 2-amino-4-(2,3-difluorophenyl)-6,7-dihydro-5H-pyrazolo[3,4-h]quinoline-3-carbonitrile bis(trifluoroacetate)], in the experiment on TNFα production, the “Rat LPS assay: inhibition of TNFα production” value is on record as 83%. Besides, the pIC50 in experiment [1] (U-937, 4 h) is 5.40.
With `N#Cc1c(N)nc2c(c1-c1ccco1)CCc1cn[nH]c1-2` [Example 105, 8-amino-6-(2-furyl)-4,5-dihydro-1H-pyrazolo[4,3-h]quinoline-7-carbonitrile], the pIC50 in experiment [1] (setting [3]) is 6.05.
The same measure, in the same setting: in the case of `N#Cc1c(-c2ccco2)cc(-c2cc[nH]n2)nc1N` [Example 106, 2-amino-4-(2-furyl)-6-(1H-pyrazol-3-yl)nicotinonitrile trifluoroacetate] it was 5.40.
As for `CCOCC1Cc2c(nc(N)c(C#N)c2N)O1` (stereo not drawn) [Example 125, trifluoroacetate], the pIC50 in experiment [2] is 3.90.
